The record followed here is patent US10323038B2, “Pyrazole compounds and methods of making and using same” (ABIDE THERAPEUTICS, INC., priority 2015, dated 2019).

The target of one experiment is MAGL (Mus musculus (Mouse), UniProt O35678). The experiment is described as follows: In vitro competitive activity-based protein profiling, MAGL (mouse). It is filed as biochemical. The settings on record: for inhibition at 1 µM: read-out: MAGL % inh. 1 μM (mouse). The method, then:
(§1) In Vitro Competitive Activity-Based Protein Profiling.
(§2) Proteomes (mouse brain membrane fraction or cell lysates for mouse assays; human prefrontal cortex or cell membrane fractions for human assays) (50 μL, 1.0 mg/mL total protein concentration) were preincubated with varying concentrations of inhibitors at 37° C. After 30 min, FP—Rh or HT-01 (1.0 μL, 50 μM in DMSO) was added and the mixture was incubated for another 30 min at 37° C. Reactions were quenched with SDS loading buffer (15 μL-4×) and run on SDS-PAGE. Following gel imaging, serine hydrolase activity was determined by measuring fluorescent intensity of gel bands corresponding to MAGL and FAAH using ImageJ 1.43u software.

In the next experiment the target is FAAH (Mus musculus (Mouse), UniProt O08914). The experiment is described as follows: In vitro competitive activity-based protein profiling, FAAH (mouse). It is filed as biochemical. The settings on record: for inhibition at 1 µM: read-out: FAAH % inh. 1 μM (mouse). The procedure: as §1, §2

SMILES strings stand for the structures.

Sequence of FAAH (O08914 whole entry): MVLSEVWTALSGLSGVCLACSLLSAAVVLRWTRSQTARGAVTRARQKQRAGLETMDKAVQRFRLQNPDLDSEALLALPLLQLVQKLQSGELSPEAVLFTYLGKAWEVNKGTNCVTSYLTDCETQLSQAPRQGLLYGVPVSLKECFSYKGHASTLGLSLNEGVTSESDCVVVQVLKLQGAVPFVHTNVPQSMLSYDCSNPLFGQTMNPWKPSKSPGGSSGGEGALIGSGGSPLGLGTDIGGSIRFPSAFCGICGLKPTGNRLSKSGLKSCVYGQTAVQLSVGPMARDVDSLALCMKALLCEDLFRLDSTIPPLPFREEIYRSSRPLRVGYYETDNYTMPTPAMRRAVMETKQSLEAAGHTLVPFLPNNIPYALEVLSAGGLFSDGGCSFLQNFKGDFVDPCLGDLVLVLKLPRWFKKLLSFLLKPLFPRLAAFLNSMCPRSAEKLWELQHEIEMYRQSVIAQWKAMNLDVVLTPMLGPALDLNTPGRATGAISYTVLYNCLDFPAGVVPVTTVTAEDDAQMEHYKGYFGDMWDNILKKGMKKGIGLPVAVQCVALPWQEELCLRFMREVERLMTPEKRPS
Sequence of MAGL (O35678 whole entry): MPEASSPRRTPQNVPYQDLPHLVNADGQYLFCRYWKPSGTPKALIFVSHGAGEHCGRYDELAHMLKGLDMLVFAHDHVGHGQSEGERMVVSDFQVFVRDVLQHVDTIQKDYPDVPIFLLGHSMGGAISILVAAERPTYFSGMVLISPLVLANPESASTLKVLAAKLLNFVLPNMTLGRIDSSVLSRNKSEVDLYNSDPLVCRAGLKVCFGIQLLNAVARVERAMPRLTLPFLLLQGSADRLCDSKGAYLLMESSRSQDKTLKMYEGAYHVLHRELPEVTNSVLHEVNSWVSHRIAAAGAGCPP

Turning to `CC(=O)N(C)c1cnn(C(=O)N2CCC3(CC2)CN(Cc2ccc(N4CCCC4)cc2)C3)c1` [Example 25, N-methyl-N-(1-(2-(4-(pyrrolidin-1-yl)benzyl)-2,7-diazaspiro[3.5]nonane-7-carbonyl)-1H-pyrazol-4-yl)acetamide], the results for the inhibition at 1 µM at MAGL and at FAAH were at least 75% and 50 to 75%, respectively.
As a reminder, the IC50 is the concentration that inhibits the measured activity by half. `CC(=O)N(C)c1cnn(C(=O)N2CCC3(CC2)CN(Cc2ccc(C(F)(F)F)cc2)C3)c1` [Example 26, N-methyl-N-(1-(2-(4-(trifluoromethyl)benzyl)-2,7-diazaspiro[3.5]nonane-7-carbonyl)-1H-pyrazol-4-yl)acetamide]: the IC50 at MAGL is at most 0.1 µM; on FAAH, 0.1 to 1 µM. Besides, the inhibition at 1 µM at MAGL and on FAAH was at least 75% throughout.
Turning to `CC(=O)N(C)c1cnn(C(=O)N2CCC3(CC2)CN(Cc2ccc(N4CCOCC4)cc2)C3)c1` [Example 27, N-methyl-N-(1-(2-(4-morpholinobenzyl)-2,7-diazaspiro[3.5]nonane-7-carbonyl)-1H-pyrazol-4-yl)acetamide], the inhibition at 1 µM was at least 75% at MAGL and 0 to 25% at FAAH.
`CC(=O)N(C)c1cnn(C(=O)N2CCC3(CC2)CN(Cc2ccc(N4CCOCC4)cc2Cl)C3)c1` [Example 28, N-(1-(2-(2-chloro-4-morpholinobenzyl)-2,7-diazaspiro[3.5]nonane-7-carbonyl)-1H-pyrazol-4-yl)-N-methylacetamide]: the inhibition at 1 µM on MAGL and at FAAH was at least 75% in each case.
Consider `CC(=O)N(C)c1cnn(C(=O)N2CCC3(CC2)CN(Cc2ccc(N4CCOCC4)cc2C)C3)c1` [Example 29, N-methyl-N-(1-(2-(2-methyl-4-morpholinobenzyl)-2,7-diazaspiro[3.5]nonane-7-carbonyl)-1H-pyrazol-4-yl)acetamide], for which the inhibition at 1 µM on MAGL was at least 75%; at FAAH, 25 to 50%.
Turning to `CC(=O)N(C)c1cnn(C(=O)N2CCC3(CC2)CN(Cc2cccc(N4CCCC4)c2)C3)c1` [Example 30, N-methyl-N-(1-(2-(3-(pyrrolidin-1-yl)benzyl)-2,7-diazaspiro[3.5]nonane-7-carbonyl)-1H-pyrazol-4-yl)acetamide], the inhibition at 1 µM on MAGL and on FAAH was at least 75% throughout.
As to `CC(=O)N(C)c1cnn(C(=O)N2CCC3(CC2)CN(Cc2ccc(F)cc2)C3)c1` [Example 31, N-(1-(2-(4-fluorobenzyl)-2,7-diazaspiro[3.5]nonane-7-carbonyl)-1H-pyrazol-4-yl)-N-methylacetamide], the inhibition at 1 µM is at least 75% at MAGL and 25 to 50% at FAAH.
On to `CC(=O)N(C)c1cnn(C(=O)N2CCC3(CC2)CN(Cc2ccc(C)cc2)C3)c1` [Example 32, N-methyl-N-(1-(2-(4-methylbenzyl)-2,7-diazaspiro[3.5]nonane-7-carbonyl)-1H-pyrazol-4-yl)acetamide], for which the inhibition at 1 µM at MAGL is at least 75%; on FAAH, 25 to 50%.
On the same counts, the results for `COc1ccc(CN2CC3(CCN(C(=O)n4cc(N(C)C(C)=O)cn4)CC3)C2)cc1` [Example 33, N-(1-(2-(4-methoxybenzyl)-2,7-diazaspiro[3.5]nonane-7-carbonyl)-1H-pyrazol-4-yl)-N-methylacetamide] are 50 to 75% and 25 to 50%.
With `CC(=O)N(C)c1cnn(C(=O)N2CCC3(CC2)CN(Cc2cccc(Cl)c2)C3)c1` [Example 34, N-(1-(2-(3-chlorobenzyl)-2,7-diazaspiro[3.5]nonane-7-carbonyl)-1H-pyrazol-4-yl)-N-methylacetamide], on MAGL, the IC50 was at most 0.1 µM and the inhibition at 1 µM was at least 75%. Further, at FAAH, the IC50 was at most 0.1 µM and the inhibition at 1 µM was at least 75%.
Turning to `CC(=O)N(C)c1cnn(C(=O)N2CCC3(CC2)CN(Cc2cccc(F)c2)C3)c1` [Example 35, N-(1-(2-(3-fluorobenzyl)-2,7-diazaspiro[3.5]nonane-7-carbonyl)-1H-pyrazol-4-yl)-N-methylacetamide], the inhibition at 1 µM at MAGL and at FAAH was at least 75% each time.
In the case of `CC(=O)N(C)c1cnn(C(=O)N2CCC3(CC2)CN(Cc2cccc(C)c2)C3)c1` [Example 36, N-methyl-N-(1-(2-(3-methylbenzyl)-2,7-diazaspiro[3.5]nonane-7-carbonyl)-1H-pyrazol-4-yl)acetamide], the inhibition at 1 µM on MAGL and at FAAH was at least 75% in each case.
Consider `COc1cccc(CN2CC3(CCN(C(=O)n4cc(N(C)C(C)=O)cn4)CC3)C2)c1` [Example 37, N-(1-(2-(3-methoxybenzyl)-2,7-diazaspiro[3.5]nonane-7-carbonyl)-1H-pyrazol-4-yl)-N-methylacetamide], for which the inhibition at 1 µM on MAGL and at FAAH was 50 to 75% throughout.
With `CC(=O)N(C)c1cnn(C(=O)N2CCC3(CC2)CN(Cc2cccc(C(F)(F)F)c2)C3)c1` [Example 38, N-methyl-N-(1-(2-(3-(trifluoromethyl)benzyl)-2,7-diazaspiro[3.5]nonane-7-carbonyl)-1H-pyrazol-4-yl)acetamide], the values for the IC50 at MAGL and at FAAH were at most 0.1 µM and 0.1 to 1 µM, respectively. For the same compound, the inhibition at 1 µM at MAGL and at FAAH was at least 75% throughout.
Turning to `CC(=O)N(C)c1cnn(C(=O)N2CCC3(CC2)CN(Cc2cccc(N4CCOCC4)c2)C3)c1` [Example 39, N-methyl-N-(1-(2-(3-morpholinobenzyl)-2,7-diazaspiro[3.5]nonane-7-carbonyl)-1H-pyrazol-4-yl)acetamide], the results for the inhibition at 1 µM on MAGL and at FAAH were at least 75% and 25 to 50%, respectively.
For the compound `CC(=O)N(C)c1cnn(C(=O)N2CCC3(CC2)CN(Cc2ccccc2Cl)C3)c1` [Example 40, N-(1-(2-(2-chlorobenzyl)-2,7-diazaspiro[3.5]nonane-7-carbonyl)-1H-pyrazol-4-yl)-N-methylacetamide], at MAGL, the concentration for half-maximal inhibition (IC50) is at most 0.1 µM and the inhibition at 1 µM is at least 75%. Moreover, on FAAH, the IC50 fell in the range of 0.1 to 1 µM and the inhibition at 1 µM was at least 75%.
For the compound `CC(=O)N(C)c1cnn(C(=O)N2CCC3(CC2)CN(Cc2ccccc2F)C3)c1` [Example 41, N-(1-(2-(2-fluorobenzyl)-2,7-diazaspiro[3.5]nonane-7-carbonyl)-1H-pyrazol-4-yl)-N-methylacetamide], the inhibition at 1 µM was at least 75% at MAGL and 50 to 75% at FAAH.
`CC(=O)N(C)c1cnn(C(=O)N2CCC3(CC2)CN(Cc2ccccc2C)C3)c1` [Example 42, N-methyl-N-(1-(2-(2-methylbenzyl)-2,7-diazaspiro[3.5]nonane-7-carbonyl)-1H-pyrazol-4-yl)acetamide]: the inhibition at 1 µM at MAGL and at FAAH was at least 75% each time.
As for `COc1ccccc1CN1CC2(CCN(C(=O)n3cc(N(C)C(C)=O)cn3)CC2)C1` [Example 43, N-(1-(2-(2-methoxybenzyl)-2,7-diazaspiro[3.5]nonane-7-carbonyl)-1H-pyrazol-4-yl)-N-methylacetamide], the inhibition at 1 µM was at least 75% on MAGL and 0 to 25% at FAAH.
With `CC(=O)N(C)c1cnn(C(=O)N2CCC3(CC2)CN(Cc2ccccc2C(F)(F)F)C3)c1` [Example 44, N-methyl-N-(1-(2-(2-(trifluoromethyl)benzyl)-2,7-diazaspiro[3.5]nonane-7-carbonyl)-1H-pyrazol-4-yl)acetamide], at MAGL, the IC50 was at most 0.1 µM and the inhibition at 1 µM was at least 75%. Further, on FAAH, the IC50 was at most 0.1 µM and the inhibition at 1 µM was at least 75%.
With `CC(=O)N(C)c1cnn(C(=O)N2CCC3(CC2)CN(Cc2ccccc2N2CCCC2)C3)c1` [Example 45, N-methyl-N-(1-(2-(2-(pyrrolidin-1-yl)benzyl)-2,7-diazaspiro[3.5]nonane-7-carbonyl)-1H-pyrazol-4-yl)acetamide], the inhibition at 1 µM was at least 75% on MAGL and 0 to 25% at FAAH.
On the same counts, the results for `CC(=O)N(C)c1cnn(C(=O)N2CCC3(CC2)CN(Cc2ccccc2N2CCOCC2)C3)c1` [Example 46, N-methyl-N-(1-(2-(2-morpholinobenzyl)-2,7-diazaspiro[3.5]nonane-7-carbonyl)-1H-pyrazol-4-yl)acetamide] are 50 to 75% and 0 to 25%.
For `CC(=O)N(C)c1cnn(C(=O)N2CCC3(CCN(Cc4ccc(N5CCCC5)cc4)C3)C2)c1` (centres unmarked) [Example 47, N-methyl-N-(1-(7-(4-(pyrrolidin-1-yl)benzyl)-2,7-diazaspiro[4.4]nonane-2-carbonyl)-1H-pyrazol-4-yl)acetamide] the same measures were 25 to 50% and at least 75%.
As to `CC(=O)N(C)c1cnn(C(=O)N2CCC3(CCN(Cc4c(Cl)cccc4Cl)C3)C2)c1` (centres unmarked) [Example 49, N-(1-(7-(2,6-dichlorobenzyl)-2,7-diazaspiro[4.4]nonane-2-carbonyl)-1H-pyrazol-4-yl)-N-methylacetamide], on MAGL, the IC50 was in the range of 0.1 to 1 µM and the inhibition at 1 µM was at least 75%. In addition, at FAAH, the IC50 was 0.1 to 1 µM and the inhibition at 1 µM was at least 75%.
Consider `CC(=O)N(C)c1cnn(C(=O)N2CCC3(CCN(Cc4ccc(Cl)cc4Cl)C3)C2)c1` (centres unmarked) [Example 51, N-(1-(7-(2,4-dichlorobenzyl)-2,7-diazaspiro[4.4]nonane-2-carbonyl)-1H-pyrazol-4-yl)-N-methylacetamide], for which, at MAGL, the IC50 is at most 0.1 µM and the inhibition at 1 µM was at least 75%. In addition, at FAAH, the half-inhibitory concentration (IC50) is at most 0.1 µM and the inhibition at 1 µM was at least 75%.
As to `CC(=O)N(C)c1cnn(C(=O)N2CCC3(CCN(Cc4cc(Cl)cc(Cl)c4)C3)C2)c1` (centres unmarked) [Example 53, N-(1-(7-(3,5-dichlorobenzyl)-2,7-diazaspiro[4.4]nonane-2-carbonyl)-1H-pyrazol-4-yl)-N-methylacetamide], on MAGL, the IC50 lay in the range of 0.1 to 1 µM and the inhibition at 1 µM was at least 75%. For the same compound, on FAAH, the IC50 is at most 0.1 µM and the inhibition at 1 µM is at least 75%.
